Data set [1] deals with caterpillars of the army worm (Spodoptera frugiperda). The experiment in a line: Spodoptera frugiperda test. Type of data set: in vivo. The following applies: 1000 ppm, after 7 days, cabbage leaves dipped. The source says: Spodoptera frugiperda Test
Data set [2] is described as follows: logP determination by HPLC (EEC Directive 79/831 Annex V.A8). Type of data set: physicochemical.
For another data set, the system named is Meloidogyne incognita. The experiment in a line: Meloidogyne test. As to conditions: 20 ppm, after 14 days, lettuce. Type of data set: in vivo. As for the experimental part:
Containers are filled with sand, solution of active compound, Meloidogyne incognita egg/larvae suspension and lettuce seeds. The lettuce seeds germinate and the plants develop. On the roots, galls are formed.
After the desired period of time, the nematicidal action is determined in % using gall formation as a measure. 100% means that no galls were found; 0% means that the number of galls on the treated plants corresponds to that of the untreated control.

Data set [3] has as its system peach aphid (Myzus persicae). The experiment in a line: Myzus test. Type of data set: in vivo. As to conditions: 10 ppm, after 6 days, Vicia faba seedlings dipped.
The subject of data set [4] is greenhouse red spider mite (Tetranychus urticae). Kind of data set: Tetranychus test (OP-resistant/dip treatment). Type of data set: in vivo. The following applies: 0.1%, after 7 days, bean plants dipped. The source says:
Tetranychus Test (OP-resistant/Dip Treatment)

Data set [5] concerns Boophilus microplus resistant (SP-resistant Parkhurst strain). The experiment in a line: Test with Boophilus microplus resistant (SP-resistant Parkhurst strain/II), injection. The following applies: injected into the abdomen, after 7 days; for kill (no oviposition of fertile eggs): 20 μg per animal. Type of data set: in vivo. The method, then: Test with Boophilus microplus Resistant (SP-resistant Parkhurst Strain/II)
20 mg of active compound are dissolved in 1 ml of dimethyl sulphoxide, more dilute concentrations are prepared by dilution in the same solvent.
The test is carried out in 5 replications. 1 μl of the solutions is injected into the abdomen, and the animals are transferred into dishes and kept in a climatized room. After 7 days, the activity is checked by examination for oviposition of fertile eggs. Eggs whose fertility is not visible from the outside are stored in glass tubes in a controlled-environment cabinet until the larvae have hatched. An activity of 100% means that no tick has produced any fertile eggs.

In data set [6] the test system is adults of Ctenocephalides felis. The experiment in a line: Test with cat fleas/oral uptake. Type of data set: in vivo. The following applies: 100 ppm in citrated cattle blood, after 28 h. As for the experimental part: Test with Cat Fleas/Oral Uptake
15 μl of this formulation are added to 3 ml of citrated cattle blood and stirred.
10 unfed adult fleas (Ctenocephalides felis, strain “Georgi”) are placed into a chamber (Ø 3.2 cm) whose top and bottom are closed with gauze. A metal cylinder whose underside is covered with parafilm is placed onto the chamber. […] Whereas the blood is warmed to 37° C., the temperature in the area of the flea chambers is adjusted to 25° C. Controls are mixed with the same volume of DMSO, without addition of a compound. The determinations are carried out in triplicate.
After 28 h, the mortality in % (=dead fleas) is determined.

Data set [7] has as its system Trichinella spiralis larvae. The experiment in a line: Trichinella spiralis in-vitro. The following applies: 100 ppm, 5 days at 19° C. More on the design: key: 0 means no activity; 1 means weak activity; 2 means good activity; 3 means full activity. The method, then:
Trichinella spiralis In-vitro
Trichinella spiralis larvae are isolated from skeletal muscles and subcutaneous muscles of SPF/CFW1 mice and collected in aqueous 0.9% NaCl containing 20 μg of sisomycin/ml. Per determination, 20 larvae are incubated in 2 ml of a nutrient solution (20 g of Bacto Casitone/l, 10 g of yeast extract/l, 5 g of glucose/l, 0.8 g of KH2PO4/l, 0.8 g of K2HPO4; […] of sisomycin/ml and 1 μg of Canesten/ml; pH=7.2).
The incubation and the determination have been described in Martin et al., Pesticide Science (1996) 48, 343-349. 10 mg of the test compound are dissolved in 0.5 ml of the stated solvent, and such an amount of the resulting solution is added to the incubation medium that the desired concentration is reached. The controls contain only the solvent.
After an incubation time of 5 days at a temperature of 19° C., the experiment is terminated. The anthelmintic activity of a substance is categorized into 4 stages. 0 means no activity, 1 means weak activity, 2 means good activity and 3 means full activity (<50%, 50-75%, >75%, 100% of the larvae dead).

Data set [8] relates to larvae of the mustard beetle (Phaedon cochleariae). The experiment in a line: Phaedon larvae test. The following applies: 1000 ppm, after 7 days, cabbage leaves dipped.
The test system of data set [9] is Boophilus microplus resistant (SP-resistant Parkhurst strain). The experiment in a line: Test with Boophilus microplus resistant (SP-resistant Parkhurst strain/I), dip. Type of data set: in vivo. The following applies: 100 ppm, adult females dipped for 1 minute. As for the experimental part:
Test with Boophilus microplus Resistant (SP-resistant Parkhurst Strain/I)
(§1) 20 mg of active compound are dissolved in 1 ml of dimethyl sulphoxide, more dilute concentrations are prepared by dilution with distilled water.
10 adult Boophilus microplus res. are dipped for 1 minute into the preparation of active compound to be tested. The animals are transferred into plastic beakers and kept in a climatized room, and the kill rate is then determined.

For data set [10], the system named is Blatella germanica or Periplaneta americana. Kind of data set: Cockroach test. Type of data set: in vivo. The following applies: 100 ppm, dipped for 1 minute, after 7 days. The method, then: 20 mg of active compound are dissolved in 1 ml of dimethyl sulphoxide, more dilute concentrations are prepared by dilution with distilled H2O.
4 test animals are dipped for 1 minute into the preparation of active compound to be tested.
The test animals are transferred into plastic beakers and kept in a climatized room for 7 days, after which the kill rate is determined.

A further data set has as its system Lucilia cuprina larvae. Kind of data set: Blowfly larvae test/development-inhibitory action. Type of data set: in vivo. The following applies: 100 ppm. As for the experimental part: Blowfly Larvae Test/Development-inhibitory Action
as §1
About 20 Lucilia cuprina larvae are introduced into a test tube which contains about 1 cm^3 of horse meat and 0.5 ml of the preparation of active compound to be tested. After 24 hours and 48 hours, the efficacy of the preparation of active compound is determined. The test tubes are transferred into a beaker whose bottom is covered with sand. After a further 2 days, the test tubes are removed and the pupae are counted.
The efficacy of the preparation of active compound is assessed by the number of flies that have hatched after 1.5 times the period of development of an untreated control. 100% means that no flies have hatched; 0% means that all flies have hatched normally.

The mark [11] stands for this setting: pH2, HPLC gradient method, acetonitrile/0.1% aqueous phosphoric acid, Table 1.

Each structure is given as a SMILES string.

By melting point is commonly meant the temperature of the solid-liquid transition. `FC(F)=C(F)CCCCSc1nnc(-c2ccc(C(F)(F)F)cc2)o1` [Example 1, 2-(6,6,5-trifluorohex-5-enylthio)-5-(4-trifluoromethyl-phenyl)-1,3,4-oxadiazole] returned a melting point of 40 °C. Moreover, the kill in [1] came out at 100%.

In the case of `FC(F)=CCCCCSc1nnc(-c2ccc(C(F)(F)F)cc2)o1` [Example 2], the “logP (pH2)” value in data set [2] (setting [11]) was 4.77. In addition, in the data set with Meloidogyne incognita, the “nematicidal action (gall formation)” value is recorded as 100%. Besides, the values for the kill in data set [3], in data set [4] and in data set [8] were 95%, 98% and 100%, respectively. The “kill (no oviposition of fertile eggs)” value in data set [5] came to 100%. Moreover, in data set [6], the “kill (mortality)” value is reported as 93%. In addition, in data set [7], the “anthelmintic activity class (larvae dead)” value (shortened to “anthelmintic activity class”) is given as “no activity”.

For the compound `CSc1nnc(SCCCCC(F)=C(F)F)s1` [Example 5], the “logP (pH2)” value in data set [2] (pH 2) is 3.69. For the same compound, the “nematicidal action (gall formation)” value in the data set with Meloidogyne incognita stood at 100%. Moreover, in data set [5], the “kill (no oviposition of fertile eggs)” value is 100%.

In the case of `CSc1nnc(SCCCCC=C(F)F)s1` [Example 6], the “logP (pH2)” value in [2] (pH 2) worked out at 3.79. Also, the kill in data set [3] is 95%; in data set [4] it was 98%; in data set [9], 100%; in [10], 75%; in data set [8] it was 100%. In addition, the “activity (no oviposition of fertile eggs)” value in [5] (0.8 μg per animal) and in [5] (4 μg per animal) was 100% each time. The “kill (no oviposition of fertile eggs)” value in data set [5] was found to be 100%. In data set [6], the “kill (mortality)” value is listed as 81%.

As to `C[S+]([O-])c1nnc(SCCCCC(F)=C(F)F)s1` (stereo not drawn) [Example 9], the “logP (pH2)” value in data set [2] (pH 2) was 2.46.

As to `FC(F)=CCCCCSc1nnc(C(F)(F)F)s1` [Example 10], the “logP (pH2)” value in data set [2] (setting [11]) came out at 4.32. Moreover, the kill in data set [3], in data set [1], in data set [9] and in data set [10] was 100% throughout. The “activity (no oviposition of fertile eggs)” value in [5] (0.8 μg per animal) and in [5] (4 μg per animal) was 100% each time. For the same compound, the “kill (no oviposition of fertile eggs)” value in [5] is 100%. Besides, the “kill (mortality)” value in [6] came out at 87%. The “anthelmintic activity class” value in [7] was “no activity”.

Consider `FC(F)=C(F)CCCCSc1nnc(C(F)(F)F)s1` [Example 11], for which the “logP (pH2)” value in [2] (setting [11]) is on record as 4.21. Also, the kill in data set [8] is on record as 100%.

`CC(C)CCSc1nnc(SCCCCC=C(F)F)s1` [Example 12]: the “logP (pH2)” value in [2] (pH 2) came to 5.68. The “nematicidal action (gall formation)” value in the data set on Meloidogyne incognita was 100%. Further, the kill in [4] was 98%; in [9] it was 100%; in [8], 100%. The “activity (no oviposition of fertile eggs)” value in [5] (0.8 μg per animal) and in data set [5] (4 μg per animal) was 100% in each case. In [5], the “kill (no oviposition of fertile eggs)” value was 100%. In the data set with Lucilia cuprina larvae, the “kill (no flies hatched)” value came out at 100%. Moreover, in data set [6], the “kill (mortality)” value is 94%. Further, the “anthelmintic activity class” value in data set [7] is reported as “no activity”.

For the compound `CC(C)CCSc1nnc(SCCCCC(F)=C(F)F)s1` [Example 13], the “logP (pH2)” value in [2] (setting [11]) was 5.53. In the data set with Meloidogyne incognita, the “nematicidal action (gall formation)” value amounted to 100%.

In the case of `FC(F)=C(F)CCCCSc1nnc(-c2cc(Cl)nc(Cl)c2)o1` [Example 16], in [2] (pH 2), the “logP (pH2)” value amounted to 4.55.

For `FC(F)=C(F)CCCCSc1nnc(SCCCCC(F)=C(F)F)s1` [Example 21], the “logP (pH2)” value in data set [2] (pH 2) is 5.27. For the same compound, the “activity (no oviposition of fertile eggs)” value in data set [5] (0.8 μg per animal) and in [5] (4 μg per animal) was 100% each time. Besides, the “kill (no oviposition of fertile eggs)” value in data set [5] came out at 100%. The “anthelmintic activity class” value in data set [7] was “no activity”.

In the case of `CCOc1nnc(SCCCCC(F)=C(F)F)s1` [Example 24], the “logP (pH2)” value in data set [2] (pH 2) is recorded as 3.80.

Consider `CC(C)Oc1nnc(SCCCCC(F)=C(F)F)s1` [Example 25], for which the “logP (pH2)” value in data set [2] (pH 2) is given as 4.24.

With `FC(F)=C(F)CCCCSc1nnc(SCCC(F)=C(F)F)s1` [Example 27], the “logP (pH2)” value in [2] (pH 2) was 4.71.

In the case of `FC(F)=CCCCCSc1nnc(SCCC(F)=C(F)F)s1` [Example 28], the “logP (pH2)” value in [2] (pH 2) came to 4.84.

Regarding `FC(F)=C(F)CCCCSc1nnc(SC(F)F)s1` [Example 29], the “logP (pH2)” value in data set [2] (pH 2) is 3.82.

`FC(F)=CCCCCSc1nnc(SC(F)F)s1` [Example 30]: the “logP (pH2)” value in data set [2] (pH 2) came out at 3.91.

Consider `FC(F)=CCCCCSC1=NCCCS1` [IB-1], for which the “logP (pH2)” value in [2] (pH 2) is 1.48.

Regarding `FC(F)=C(F)CCCCSC1=NCCCS1` [IB-2], the “logP (pH2)” value in [2] (pH 2) is 1.51.

The values are drawn from US6908937B2, “Heterocyclic fluoroalkenyl thioethers (II)” (Bayer Cropscience AG, priority 2000, dated 2005).
